We go through two molecules from patent US20090130121A1, “Synthetic Peptide Copolymers for Treatment and Prevention of Cardiovascular Disorders” (Yeda Research and Development Co., Ltd., priority 2005, published 2009).

Data set [1] has as its system apoE-/- mice. As to the kind of experiment: Aortic atherosclerotic lesion area in apoE-/- mice. The class given is in vivo. Here is the method: (§1) apoE-/- (backcrossed 10 times to C57BL/6J) mice were obtained from the Jackson Laboratory and were maintained under specific pathogen-free conditions and fed a normal chow diet. All experimental procedures were performed with approval from the Animal Care Committee of the Weizmann Institute of Science.
(§2) Eight-month-old apoE-/- mice (101 mice) were divided into 7 groups, […] (except day 0 group; n=11). Control group-time 0 (group 1) was sacrificed before treatment in order to measure the atherosclerotic lesion area prior to the treatments. Treatments were performed daily for a period of 8 weeks. Control group (group II) was orally administrated with PBS (0.2 ml). Control group III was injected subcutaneously (SC) with PBS (0.2 ml). Group IV was orally treated with GA in PBS (5.0 μg/0.2 ml); Groups V was orally treated with GA in PBS (250 μg/0.2 ml). Group VI was injected subcutaneously (SC) with GA in PBS (0.5 mg/0.2 ml). Group VII was injected subcutaneously (SC) with GA in PBS (2.0 mg/0.2 ml).
Aortic atherosclerotic areas were measured in control and treated mice of the following groups: I (time 0); III (S.C. PBS); V (Oral GA, 250 μg); and VII (S.C. GA, 2.0 mg).

The test system of data set [2] is apoE-/- mice. As to the kind of experiment: Atherosclerotic lesion progression in the aortic sinus of apoE-/- mice. The class given is in vivo. The conditions noted are these: daily 8 weeks. Here is the method: as §1
as §2, with “Group IV was orally treated with GA in PBS (5.0 μg/0.2 ml); Groups V was orally treated with GA in PBS (250 μg/0.2 ml).” left out
Histological evaluations of aortic fatty streak formation were performed according to the method of Paigen et al. with some modifications (Paigen et al., 1987. Atherosclerosis. 68:231-240). Briefly, the apical two thirds of the myocardium were removed and the basal part was snap-frozen in OCT (Sakura Tissue-Tek) using Isopentan cooled in liquid nitrogen. The frozen tissue blocks were placed on a cryostat, and 10-μm serial slices of the ascending aorta were collected on charge-coated Superfrost glass slides until it became possible to locate the most cranial portion of the aortic sinus by examining unstained slices. Once this slice was identified, 40 slices covering 400 μm of the ascending aorta were collected. Every second slice of the 40 collected was stained with oil red O (Riedel de Haen), counterstained with hematoxylin (Merck) stains and used for further evaluation. The fatty streak area stained with oil red O was objectively determined using a computer microscopy planimetry system (Nikon Micro & Macro system eclipse E800; Nikon digital camera DXM 1200 CCD; Nikon ×20/0.75 lens magnification) and Image-Pro Plus image analyses software for Windows XP. The total stained area (calculated for all 20 slices of each animal) was averaged per section for each animal. Thereafter, the area per slice was averaged for each group of animals and presented in μm^2.
Student's t-test was used for the comparison of the lesion progression in the aortic sinus of the treated and control groups of the apoE-/- mice.

Data set [3] is described as follows: Survival and body weight of C57BL/J6 mice on atherogenic diet, daily SC treatment. Format: in vivo. Particulars: Group B, GA 0.5 mg/0.2 ml SC daily. An excerpt: (§3) Fourteen-month-old male C57BL/J6 mice (Harlan) with an average body weight of 19 g were randomly divided into three groups (five animals in each group). The groups entered a two-week acclimatization period. Groups A, which served as positive control and B, which served as the treated group, received a high fat atherogenic diet containing 1.25 % cholesterol, 0.5% sodium cholate and 15% fat (Harlan Laboratories, Teklad Premier Laboratory Diets, Madison, Wis., USA TD 88051). Group C served as negative control and was maintained on a normal mouse chow (Altromin, Standard Diet). The chow was supplied considering that the average intake of food for each animal is about 5 g/day (Walker et al., 1999, Arterioscler Thromb Vasc Biol. 19, 2673-2679). Replenishment of food and autoclaved water was performed every other day. All the animals were weighed weekly during the study. The mice were maintained on a 12-hour light/dark cycle in ventilated cages and temperature-controlled environment, in accordance with the standard animal care requirements of the Weizmann Institute of Science.
Following acclimatization, the animals in groups A (positive control) and C (negative control) received 0.2 ml of PBS injected daily subcutaneously (SC). The animals in group B (treated) received SC daily injections of glatiramer acetate (GA) (COPAXONE®, Teva Pharmaceutical Industries Ltd) in PBS (0.5 mg/0.2 ml). After 8 weeks all the mice were bled retro-orbitally and humanely sacrificed by cervical dislocation. The hearts and ascending aorta were removed from the animals, rinsed with Dulbecco's PBS (Life Technologies) and used for the evaluation of fatty streak formation.
(§4) ANOVA single factor test was used for the comparison of the body weights of the C57BL/J6 mice. Since no fatty streaks were detected in the negative control group of the C57BL/J6 mice (Group C), only two groups (A and B) participated in the statistical analysis of the results obtained in the quantization of aortic fatty streak area. The C57BL/J6 data were analyzed using Student's t-test: two samples assuming unequal variance. […]

The nature of data set [4]: Body weight gain and plasma lipids in apoE-/- mice. Format: in vivo. Particulars: high and low doses, subcutaneously or orally, daily 8 weeks. Here is the method:
as §1, §2
The whole blood samples were centrifuged for plasma separation and the plasma samples of each group were pooled. Total Plasma cholesterol as well as low and high density lipoprotein cholesterol (LDL and HDL, respectively) concentrations were measured in each group using Konelab 30i autoanalyser (Kone Instruments, Espoo, Finland).

The conditions of data set [5]: several clinical trials; mostly mild reactions at the injection site; cited from earlier work.
The test system of data set [6] is C57BL/J6 mice maintained on an atherogenic diet. As to the kind of experiment: Atherosclerotic fatty streak area (oil red O) in aorta of C57BL/J6 mice on atherogenic diet. Format: in vivo.
Text: as §3, with “Science. […]” for “Science.”
Histological evaluations of aortic fatty streak formation were performed according to the method of Paigen et al. with some modifications (Paigen et al., 1987. Atherosclerosis. 68:231-240). […] The fatty streak area stained with oil red O was objectively determined using a computer microscopy planimetry system (Nikon Micro & Macro system eclipse E800; Nikon digital camera DXM 1200 CCD; Nikon ×20/0.75 lens magnification) and Image-Pro Plus image analyses software for Windows XP. The total stained area (calculated for all 20 slices of each animal) was averaged per section for each animal. […]
as §4

The subject of data set [7] is apolipoprotein E-deficient mice. The conditions noted are these: 12 week treatment; cited from earlier work.

As for glatiramer acetate [GA], the “change in aortic lesion area compared to time 0” value in the data set on apoE-/- mice [1] (Oral GA 250 μg, group V, P<0.05) is “significance increase”. Moreover, the “inhibition of aortic lesion area progression compared to control group III” value with apoE-/- mice [1] (high dose 2.0 mg S.C., group VII, t-test P=0.009) is 52%. Moreover, the figures for the “inhibition of the progression of lesion area in the aortic sinus with respect to control” value in the data set on apoE-/- mice [2] (high dose S.C. (2.0 mg)) and in the data set on apoE-/- mice [2] (high dose orally (250 μg)) were 44.4% and 37.7%, respectively. Moreover, the “effect on lesion progression in the aortic sinus” value in the data set with apoE-/- mice [2] (low dose S.C. (500 μg)) and in the data set on apoE-/- mice [2] (low dose orally (50 μg)) was “did not effect” throughout. Besides, the “average body weight ten weeks following the initiation of the study” value in data set [3] (atherogenic diet) worked out at 24.20 ± 0.94 g. Besides, in data set [3] (atherogenic diet), the “weight gained during the 10 weeks of the study” value came to 5.24 ± 1.40 g. Also, the “animals that reached the end of the study” value in data set [3] (one animal found dead five weeks into the study) is reported as “Four out of five”. Besides, the “effect on body weight gain” value in data set [4] is “did not affect”. Besides, the “tolerability in clinical trials” value in data set [5] is listed as “well tolerated with only minor side reactions”. In data set [6] (Group B, GA 0.5 mg SC daily 8 weeks, animals that reached the end of the study), the “animals with no fatty streaks in the analysed aortic section (20 slices)” value is given as “two out of four”. Further, the “reduction in the fatty streak area compared to the untreated mice” value in data set [6] (calculated for all four mice in Group B) was 4 fold. In data set [6] (the two GA-treated mice that had fatty streaks, p=0.014), the “average area stained with oil red O relative to positive control Group A” value is recorded as 40%.

Turning to `CC(=O)CCCCn1c(=O)c2c(ncn2C)n(C)c1=O` [PTX, pentoxifylline], in data set [7], the “decrease in the size of atherosclerotic lesions” value is recorded as 60%.
